Data from US20100256086A1, “NON-HYDROLYZABLE NUCLEOSIDE DI- OR TRI-PHOSPHATE DERIVATIVES AND USES THEREOF” (priority 2007, published 2010).

What was measured:
perfused rat pancreas = settings: cited from earlier work
turkey P2Y1 = target: T1, turkey P2Y1 (Meleagris gallopavo, UniProt P49652); experiment: Intracellular calcium measurement ([Ca2+]i, fura-2) in 1321N1 astrocytoma cells; type: cell-based; settings: for activities at the P2YRs tested: P2Y1, P2Y2, P2Y4 and P2Y6 tested; for EC50: human 1321N1 astrocytoma cells expressing turkey P2Y1, read-out: Compound-induced activation of [Ca2+] EC50, P2Y1
T1 construct: expressed in transfected cells
Method: (§1) Human 1321N1 astrocytoma cells stably expressing the turkey P2Y1, human P2Y2, human P2Y4 or rat P2Y6 were grown in Dulbecco's modified Eagle's medium containing 5% (v/v) fetal bovine serum, 100 units/ml penicillin, 100 μg/ml streptomycin and 500 μg/ml Geneticin (G-418, Life Technologies, Inc). Changes in the intracellular free calcium concentration, [Ca^2+]i were detected by dual-excitation spectrofluorometric analysis of cell suspensions loaded with fura-2, as previously described (Garrad et al., 1998; Grynkiewicz et al., 1985). Cells were assayed in 10 mM Hepes-buffered saline (pH 7.4) containing 1 mM CaCl2 and 1 mM MgCl2. The cells were pelleted in a microfuge and resuspended in 2 ml of buffer. Concentration-response data were analyzed with the Prism curve fitting program (GraphPAD Software, San Diego, Calif.). Three experiments were conducted on separate days for each P2Y receptor subtype.
(§2) The activities of compounds 2, 4B, 17, 18, 19A, 21 (isomers A and B) were examined at the G protein-coupled P2YRs, P2Y1, P2Y2, P2Y4 and P2Y6 expressed in human 1321N1 astrocytoma cells, based on intracellular calcium measurements, as described in Experimental above. In particular, the activity of compound 2, 4B and 19 was examined at P2Y1R, P2Y2R, P2Y4R and P2Y6R, and the activity of compounds 17, 18 and 21 was examined at P2Y1R only. The experiments were conducted by Prof. Gary A. Weisman from Columbia-Missouri University, Columbia, Mo., USA.

[1] = Stability in human blood serum, Method A; type: in vitro ADME; settings: human blood serum and RPMI-1640, 37° C.
Method: (§3) Preparation of the Human Blood Serum: Blood Taken from Healthy Volunteers was obtained from a blood bank (Tel-Hashomer hospital, Israel), stored for 12 h at 4° C. and centrifuged in plastic tubes at 1500 g for 15 min at room temperature. The serum was separated and stored at −80° C.
The assay mixture, containing a 40 mM nucleotide derivative solution in deionized water (4.5 μl), human blood serum (180 μl) and RPMI-1640 (540 μl), was incubated at 37° C. for 1, 4, 8, 16, 24, 48, 72 and 96 h. The samples were then treated with 0.6 M of hydrochloric acid (430 μl), centrifuged for 2 min (13,000 g, 4° C.), neutralized by addition of 4 M of KOH, centrifuged for 2 min (13,000 g, 4° C.) and freeze-dried. The stability of the nucleotide was evaluated by HPLC for monitoring possible dephosphorylation products. The mixture was separated on a Gemini analytic column (5u C-18 110A, 150×4.60 mm) with gradient elution [0.01 M KH2PO4 pH=4.5 (A)/acetonitrile (B), 100:0→60:40, A:B, 20 min for 2, 3A and 3B; 100:0→95:5, A:B, 10 min for ATP] and flow rate of 1 ml/min. The hydrolysis rate was determined by measuring the change in the integration of the respective HPLC peaks with time.

[2] = cited from earlier work
[3] = Stability in human blood serum, Method B; type: in vitro ADME; settings: human blood serum and RPMI-1640, 37° C.
Method: as §3
The assay mixture, containing a 40 mM nucleotide derivative solution in deionized water (4.5 μl), human blood serum (180 μl) and RPMI-1640 (540 μl), was incubated at 37° C. for 1, 4, 8, 16, 24, 48, 72, 96, 120 and 144 h. The samples were then heated to 80° C. for 30 min, treated with CM Sephadex (1-2 mg) for 2 h, centrifuged for 6 min (12,000 rpm) and extracted with chloroform (2×500 μl). The aqueous layer was freeze-dried. The stability of the nucleotide was evaluated by HPLC for monitoring possible dephosphorylation products. The mixture was separated on a Gemini analytic column (5u C-18 110A, 150×4.60 mm) with gradient elution [100 mM TEAA, pH 7 (A)/MeOH (B), 79:21, A:B, 15 min for 4A and 4B; 100 mM TEAA, pH 7 (A)/acetonitryl (B), A:B, 10 min, 100:0→90:10 A:B 10 min, 90:10→80:20 A:B 4 min, 80:20 A:B 1 min for ATP] and flow rate of 1 ml/min. The hydrolysis rate was determined by measuring the change in the integration of the respective HPLC peaks with time.

ecto-nucleotidases = settings: muscle strips preparations, 60 min incubation; cited from earlier work
human P2Y2 = target: T2, human P2Y2 (Homo sapiens, UniProt P41231); experiment: Intracellular calcium measurement ([Ca2+]i, fura-2) in 1321N1 astrocytoma cells; type: cell-based; set-up: key to Compound-induced activation of [Ca2+], P2Y2, response class: sr = slight response at 100 μM; nr = no response
T2 construct: expressed in transfected cells
Method: as §1, §2

human P2Y4 = target: T3, human P2Y4 (Homo sapiens, UniProt P51582); experiment: as above; type: cell-based; set-up: key to Compound-induced activation of [Ca2+], P2Y4, response class: sr = slight response at 100 μM; nr = no response; settings: 1321N1 cells expressing human P2Y4
T3 construct: expressed in transfected cells
Method: as §1, §2

rat P2Y6 = target: T4, rat P2Y6 (Rattus norvegicus, UniProt Q63371); experiment: as above; type: cell-based; set-up: key to Compound-induced activation of [Ca2+], P2Y6, response class: sr = slight response at 100 μM; nr = no response; settings: for agonistic effect on P2Y6R: at 100 μM
T4 construct: expressed in transfected cells
Method: as §1, §2

[4] = pKa and degree of ionization of terminal phosphonate/phosphate; type: physicochemical; settings: assay conditions, pH 7.4
[5] = Stability in human blood serum (Example 10)
[6] = target: T5, calf intestine alkaline phosphatase (Bos taurus, UniProt P19111); experiment: Enzymatic stability to alkaline phosphatase; type: in vitro ADME; settings: 37° C., as in Example 6
T5 construct: purchased Fermentas Inc., Glen Burnie, Md
Method: Enzyme activity was measured by the release of p-nitrophenol from the nucleotide derivatives using a UV-vis spectrophotometer at 405 nm. Relative activity and resistance of nucleotides to enzymatic hydrolysis were determined at 37° C. Briefly, 32.5 μl of nucleotide derivative (77 μg/ml in 0.1 M Tris-HCl and 0.1 M MgCl2, pH 7.5) and 6 μl of deionized water were incubated with calf intestine alkaline phosphatase (Fermentas Inc., Glen Burnie, Md., 1 unit/μl, 6.25 μl at 37° C. final pH=9.8). After 30 min, the reaction was stopped by incubation at 80° C. for 30 min. The stability of the nucleotide derivative was evaluated by HPLC to monitor possible dephosphorylation products. The mixture was separated on a Gemini analytic column (5u C-18 110A, 150×4.60 mm) using gradient elution with Solvent System I (see Example 1) at 90:10 to 70:30 A:B for 3A and 3B, and 82:18 to 50:50 for 4A, 4B and 2 over 20 min and at a flow rate of 1 ml/min.

[7] = 1321N1 cells expressing human P2Y2
[8] = 1321N1 cells expressing rat P2Y6

T1 sequence (P49652 whole entry): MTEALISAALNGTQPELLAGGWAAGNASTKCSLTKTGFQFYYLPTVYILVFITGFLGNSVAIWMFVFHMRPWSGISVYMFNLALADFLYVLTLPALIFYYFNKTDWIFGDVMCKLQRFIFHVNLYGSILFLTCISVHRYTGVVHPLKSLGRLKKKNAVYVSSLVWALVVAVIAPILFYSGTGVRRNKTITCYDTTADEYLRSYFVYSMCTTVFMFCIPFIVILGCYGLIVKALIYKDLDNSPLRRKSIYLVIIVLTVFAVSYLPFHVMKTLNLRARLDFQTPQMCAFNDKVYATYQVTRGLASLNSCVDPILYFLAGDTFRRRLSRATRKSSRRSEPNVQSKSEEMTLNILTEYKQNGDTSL
T2 sequence (P41231 whole entry): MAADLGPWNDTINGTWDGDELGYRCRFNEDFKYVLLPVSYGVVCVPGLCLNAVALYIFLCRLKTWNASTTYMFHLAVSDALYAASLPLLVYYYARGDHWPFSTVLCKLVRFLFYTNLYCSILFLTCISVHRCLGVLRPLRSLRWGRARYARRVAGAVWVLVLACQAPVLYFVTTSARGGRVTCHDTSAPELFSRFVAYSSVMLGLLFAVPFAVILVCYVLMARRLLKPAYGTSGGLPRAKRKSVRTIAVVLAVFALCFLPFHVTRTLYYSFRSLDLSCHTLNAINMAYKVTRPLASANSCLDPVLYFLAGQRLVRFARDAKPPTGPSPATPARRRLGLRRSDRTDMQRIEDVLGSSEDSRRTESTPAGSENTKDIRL
T3 sequence (P51582 whole entry): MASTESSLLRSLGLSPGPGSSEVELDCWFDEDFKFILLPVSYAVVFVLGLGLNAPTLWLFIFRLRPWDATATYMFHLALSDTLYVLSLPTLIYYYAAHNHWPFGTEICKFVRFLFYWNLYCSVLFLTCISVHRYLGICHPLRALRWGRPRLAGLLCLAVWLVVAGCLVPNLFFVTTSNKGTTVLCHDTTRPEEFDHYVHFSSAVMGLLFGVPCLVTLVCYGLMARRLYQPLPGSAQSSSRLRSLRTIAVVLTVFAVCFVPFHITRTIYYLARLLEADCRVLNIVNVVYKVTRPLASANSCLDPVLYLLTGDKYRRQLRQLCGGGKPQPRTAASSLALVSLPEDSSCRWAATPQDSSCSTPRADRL
T4 sequence (Q63371 whole entry): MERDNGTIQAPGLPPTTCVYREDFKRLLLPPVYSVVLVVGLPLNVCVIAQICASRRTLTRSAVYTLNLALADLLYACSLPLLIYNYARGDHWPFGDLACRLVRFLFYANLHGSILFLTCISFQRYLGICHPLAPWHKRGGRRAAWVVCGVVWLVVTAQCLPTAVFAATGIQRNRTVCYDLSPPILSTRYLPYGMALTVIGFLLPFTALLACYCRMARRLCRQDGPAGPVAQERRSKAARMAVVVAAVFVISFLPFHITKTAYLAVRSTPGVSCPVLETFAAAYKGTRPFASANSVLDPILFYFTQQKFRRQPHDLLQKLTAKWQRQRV
T5 sequence (P19111 20-506): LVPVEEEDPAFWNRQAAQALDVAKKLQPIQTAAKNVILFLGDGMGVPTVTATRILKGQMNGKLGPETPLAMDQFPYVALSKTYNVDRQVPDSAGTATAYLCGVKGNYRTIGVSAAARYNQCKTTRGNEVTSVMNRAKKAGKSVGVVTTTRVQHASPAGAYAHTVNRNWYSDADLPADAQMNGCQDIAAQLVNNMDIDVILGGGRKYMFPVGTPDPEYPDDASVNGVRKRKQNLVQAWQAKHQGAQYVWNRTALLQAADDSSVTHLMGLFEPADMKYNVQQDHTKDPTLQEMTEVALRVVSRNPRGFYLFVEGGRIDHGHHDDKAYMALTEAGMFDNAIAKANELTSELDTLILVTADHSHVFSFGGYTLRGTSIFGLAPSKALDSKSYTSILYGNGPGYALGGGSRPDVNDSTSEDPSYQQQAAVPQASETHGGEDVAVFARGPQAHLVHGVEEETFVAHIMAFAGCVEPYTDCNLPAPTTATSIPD

2-MeS-ATP-α-B [Compound 1]
enhancement of insulin secretion as compared to basal secretion (perfused rat pancreas): 9 fold | EC50 (perfused rat pancreas; read-out: EC50 of insulin secretion): 28 nM

B[P@](=O)(OC[C@H]1O[C@@H](n2cnc3c(N)ncnc32)[C@H](O)[C@@H]1O)OP(=O)(O)CP(=O)(O)O (single isomer, unassigned) [Compound 3A, Adenosine-β,γ-CH2-5′-O-(1-boranotriphosphate)]
activity at P2Y1R, in words (turkey P2Y1): practically inactive | activities at the P2YRs tested (turkey P2Y1): insignificant activities | half-life in human blood serum [1]: 14.1 h

BP(=O)(OC[C@H]1O[C@@H](n2cnc3c(N)nc(SC)nc32)[C@H](O)[C@@H]1O)OP(=O)(O)C(Cl)(Cl)P(=O)(O)O (single isomer, unassigned) [Compound 21, 2MeS-adenosine-β,γ-CCl2-5′-O-(1-boranotriphosphate)]
pKa value of the terminal phosphonate [2]: about 6.7

BP(=O)(OC[C@H]1O[C@@H](n2cnc3c(N)nc(SC)nc32)[C@H](O)[C@@H]1O)OP(=O)(O)C(Cl)(Cl)P(=O)(O)O (single isomer, unassigned) [Compound 21A, 2MeS-adenosine-β,γ-CCl2-5′-O-(1-boranotriphosphate)]
EC50 (turkey P2Y1): 570 nM

BP(=O)(OC[C@H]1O[C@@H](n2cnc3c(N)nc(SC)nc32)[C@H](O)[C@@H]1O)OP(=O)(O)C(Cl)(Cl)P(=O)(O)O (single isomer, unassigned) [Compound 21B, 2MeS-adenosine-β,γ-CCl2-5′-O-(1-boranotriphosphate)]
EC50 (turkey P2Y1): 1200 nM

Nc1ncnc2c1ncn2[C@@H]1O[C@H](COP(=O)(O)OP(=O)(O)OP(=O)(O)O)[C@@H](O)[C@H]1O [ATP, reference compound]
half-life in human blood serum [1]: 3.6 h | half-life in human blood serum [3]: 7.7 h | degradation by ecto-nucleotidases (ecto-nucleotidases): completely dephosphorylated

CSc1nc(N)c2ncn(C3OC(COP(=O)(O)OP(=O)(O)CP(=O)(O)O)C(O)C3O)c2n1 (stereo not drawn) [Compound 2, β,γ-CH2-2MeS-adenosine-5′-triphosphate]
activity at P2Y2R, in words (human P2Y2): inactivity | Compound-induced activation of [Ca2+], P2Y2, response class (human P2Y2; [7]): nr | EC50 (turkey P2Y1): 80 nM | Compound-induced activation of [Ca2+], P2Y4, response class (human P2Y4): nr | Compound-induced activation of [Ca2+], P2Y6, response class (rat P2Y6; [8]): sr | agonistic effect on P2Y6R (rat P2Y6): slight agonistic effect | half-life in human blood serum [1]: 12.7 h | degradation by ecto-nucleotidases (ecto-nucleotidases): no degradation | fraction ionized [4]: 9%

CSc1nc(N)c2ncn([C@@H]3O[C@H](COP(=O)(O)OP(=O)(O)O)[C@@H](O)[C@H]3O)c2n1 [Compound 2-MeS-ADP, 2-MeS-ADP, reference compound]
fraction ionized [4]: 91%

B[P@](=O)(OC[C@H]1O[C@@H](n2cnc3c(N)nc(SC)nc32)[C@H](O)[C@@H]1O)OP(=O)(O)CP(=O)(O)O [Compound 4A, 2MeS-adenosine-β,γ-CH2-5′-O-(1-boranotriphosphate)]
activity at P2Y2R, in words (human P2Y2): inactivity | activities at the P2YRs tested (turkey P2Y1): insignificant activities

B[P@](=O)(OC[C@H]1O[C@@H](n2cnc3c(N)nc(SC)nc32)[C@H](O)[C@@H]1O)OP(=O)(O)CP(=O)(O)O [Compound 4B, 2MeS-adenosine-β,γ-CH2-5′-O-(1-boranotriphosphate)]
Compound-induced activation of [Ca2+], P2Y2, response class (human P2Y2; [7]): nr | EC50 (turkey P2Y1): 17200 nM | Compound-induced activation of [Ca2+], P2Y4, response class (human P2Y4): nr | Compound-induced activation of [Ca2+], P2Y6, response class (rat P2Y6; [8]): sr | agonistic effect on P2Y6R (rat P2Y6): slight agonistic effect | half-life in human blood serum [3]: 71.9 h

CSc1nc(N)c2ncn([C@@H]3O[C@H](COP(=O)(O)C(Cl)(Cl)P(=O)(O)O)[C@@H](O)[C@H]3O)c2n1 [Compound 17, 2-MeS-adenosine-5′-dichloromethylene-diphosphate]
EC50 (turkey P2Y1): 3100 nM | pKa value of the terminal phosphonate [2]: about 6.7

CSc1nc(N)c2ncn([C@@H]3O[C@H](COP(=O)(O)C(F)(F)P(=O)(O)O)[C@@H](O)[C@H]3O)c2n1 [Compound 18, 2-MeS-adenosine-5′-difluoromethylene-diphosphate]
EC50 (turkey P2Y1): 980 nM | pKa value of the terminal phosphonate [2]: about 6.7

[BH3-]P(=O)(OC[C@H]1O[C@@H](n2cnc3c(N)nc(SC)nc32)[C@H](O)[C@@H]1O)OP(=O)([O-])[O-].[Na+].[Na+].[Na+] (some centres unmarked) [Compound 19A, 2MeS-adenosine-5′-O-(Pα-borano) diphosphate]
half-life in human blood serum ([5]; Example 10): > 24 h | percentage of the compound hydrolyzed ([5]; human blood serum, after 24 h): 25-40% | Compound-induced activation of [Ca2+], P2Y2, response class (human P2Y2; [7]): nr | EC50 (turkey P2Y1): 38 nM | Compound-induced activation of [Ca2+], P2Y4, response class (human P2Y4): nr | Compound-induced activation of [Ca2+], P2Y6, response class (rat P2Y6; [8]): nr | t1/2 to alkaline phosphatase [6]: about 6 h

O=c1ccn([C@@H]2O[C@H](COP(=O)(O)OP(=O)(O)O)[C@@H](O)[C@H]2O)c(=O)[nH]1 [UDP, reference compound]
EC50 (rat P2Y6; 1321N1 cells expressing rat P2Y6, read-out: Compound-induced activation of [Ca2+] EC50, P2Y6): 200 ± 60 nM

O=c1ccn([C@@H]2O[C@H](COP(=O)(O)OP(=O)(O)OP(=O)(O)O)[C@@H](O)[C@H]2O)c(=O)[nH]1 [UTP, reference compound]
EC50 (human P2Y2; 1321N1 cells expressing human P2Y2, read-out: Compound-induced activation of [Ca2+] EC50, P2Y2): 640 ± 250 nM | EC50 (human P2Y4; read-out: Compound-induced activation of [Ca2+] EC50, P2Y4): 480 ± 310 nM

Nc1ncnc2c1ncn2[C@@H]1O[C@H](COP(=O)(O)OP(=O)(O)CP(=O)(O)O)[C@@H](O)[C@H]1O [β,γ-CH2-ATP]
degradation by ecto-nucleotidases (ecto-nucleotidases): no degradation
